Measured values published in ChEMBL document CHEMBL1201862, “PubChem BioAssay data set” (2004).
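Protocol summary: plate cells (96-well), add compound at 5 concentrations, incubate 48 h, interpolate endpoints linearly. Abbreviation: GI50, concentration required for 50% inhibition of growth.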 The source made the active and inactive calls. Cut-off read from the data, not from the text of the source: active = GI50 up to about 1.1 µM and inactive = higher.

Experiments:
Test in all cases: growth of human tumour cells (NCI), 48 h
[1] = system: OVCAR-5
[2] = system: SK-OV-3
[3] = system: KM12
[4] = system: UACC-62
[5] = system: SK-MEL-2
[6] = system: Malme-3M
[7] = system: SF-295
[8] = system: SK-MEL-5
[9] = system: HCT-116
[10] = system: U-251
[11] = system: SF-268
[12] = system: EKVX
[13] = system: SNB-75
[14] = system: SN12C
[15] = system: SF-539
[16] = system: UACC-257
[17] = system: UO-31
[18] = system: OVCAR-8
[19] = system: HCC 2998
[20] = system: HT-29

Row | Compound | GI50 [1] | GI50 [2] | GI50 [3] | GI50 [4] | GI50 [5] | GI50 [6] | GI50 [7] | GI50 [8] | GI50 [9] | GI50 [10] | GI50 [11] | GI50 [12] | GI50 [13] | GI50 [14] | GI50 [15] | GI50 [16] | GI50 [17] | GI50 [18] | GI50 [19] | GI50 [20]
1 | Cc1cccc(C)c1NC(=O)Nc1ccc(S(N)(=O)=O)cc1 | > 100 µM (inactive) | > 100 µM (inactive) | > 100 µM (inactive) | > 100 µM (inactive) | > 100 µM (inactive) | > 100 µM (inactive) | > 100 µM (inactive) | > 100 µM (inactive) | > 100 µM (inactive) | > 100 µM (inactive) | > 100 µM (inactive) | > 100 µM (inactive) | > 100 µM (inactive) | > 100 µM (inactive) | > 100 µM (inactive) | > 100 µM (inactive) | > 100 µM (inactive) | > 100 µM (inactive) | > 100 µM (inactive) | > 100 µM (inactive)
2 | O=C(OCc1ccccc1)OOC(=O)OCc1ccccc1 | > 100 µM (inactive) | > 100 µM (inactive) | > 100 µM (inactive) | > 100 µM (inactive) | > 100 µM (inactive) | > 100 µM (inactive) | > 100 µM (inactive) | > 100 µM (inactive) | > 100 µM (inactive) | > 100 µM (inactive) | > 100 µM (inactive) | > 100 µM (inactive) | 99.1 µM (inactive) | > 100 µM (inactive) | > 100 µM (inactive) | > 100 µM (inactive) | > 100 µM (inactive) | – | > 100 µM (inactive) | > 100 µM (inactive)
3 | COc1ccc(C(=C2C(=O)N(c3ccccc3)C(=O)C2=C(C)C)c2ccc(OC)cc2)cc1 | 8.69 µM (inactive) | 4.79 µM (inactive) | 3.53 µM (inactive) | 3.41 µM (inactive) | 3.97 µM (inactive) | 6.75 µM (inactive) | 3.17 µM (inactive) | 4.61 µM (inactive) | 3.72 µM (inactive) | 3.37 µM (inactive) | 9.95 µM (inactive) | 2.94 µM (inactive) | 2.87 µM (inactive) | 4.02 µM (inactive) | 2.99 µM (inactive) | 5.05 µM (inactive) | 2.75 µM (inactive) | 8.41 µM (inactive) | 5.5 µM (inactive) | 2.43 µM (inactive)
4 | COc1ccc(/C=C2\C[C@H]3[C@@H]4CCC5=C/C(=N/O)CC[C@]5(C)[C@H]4CC[C@]3(C)\C2=N\O)cc1OC | 41 µM (inactive) | 39.3 µM (inactive) | 8.04 µM (inactive) | 22.2 µM (inactive) | 15.9 µM (inactive) | 43.5 µM (inactive) | 7 µM (inactive) | 2.75 µM (inactive) | 6.56 µM (inactive) | – | 51.6 µM (inactive) | 3.36 µM (inactive) | > 100 µM (inactive) | 12.7 µM (inactive) | 16.3 µM (inactive) | 6.07 µM (inactive) | 4.5 µM (inactive) | 11 µM (inactive) | 10.7 µM (inactive) | 7.66 µM (inactive)
5 | COc1cccc(N2C(=O)CSC2c2cccc(Oc3ccccc3)c2)c1 (stereo unspecified) | 18.5 µM (inactive) | 16.1 µM (inactive) | 4.35 µM (inactive) | 3.21 µM (inactive) | 4.28 µM (inactive) | 9.02 µM (inactive) | 6.32 µM (inactive) | 4.36 µM (inactive) | 3.61 µM (inactive) | 5.22 µM (inactive) | 6.79 µM (inactive) | 13.8 µM (inactive) | 3.9 µM (inactive) | 7.98 µM (inactive) | 4.27 µM (inactive) | 3.08 µM (inactive) | 9.66 µM (inactive) | 8.69 µM (inactive) | 3.14 µM (inactive) | 4.28 µM (inactive)
6 | C/C(=N\OCC(O)CNCCSCc1ccccc1)c1ccccc1Cl (stereo unspecified) | 19.3 µM (inactive) | 19.2 µM (inactive) | 18.6 µM (inactive) | 18.6 µM (inactive) | 40.4 µM (inactive) | 19.8 µM (inactive) | 18.6 µM (inactive) | 17.1 µM (inactive) | 21.6 µM (inactive) | – | 17.3 µM (inactive) | 20 µM (inactive) | 21.4 µM (inactive) | 18.6 µM (inactive) | 19.5 µM (inactive) | 18.5 µM (inactive) | 15.7 µM (inactive) | 14.6 µM (inactive) | 19.4 µM (inactive) | 20.6 µM (inactive)
7 | CCn1c(=N)sc2nc3ccccc3n2c1=O | > 100 µM (inactive) | > 100 µM (inactive) | > 100 µM (inactive) | > 100 µM (inactive) | > 100 µM (inactive) | > 100 µM (inactive) | > 100 µM (inactive) | > 100 µM (inactive) | > 100 µM (inactive) | > 100 µM (inactive) | > 100 µM (inactive) | > 100 µM (inactive) | 40 µM (inactive) | > 100 µM (inactive) | > 100 µM (inactive) | > 100 µM (inactive) | 14.9 µM (inactive) | > 100 µM (inactive) | > 100 µM (inactive) | > 100 µM (inactive)
8 | C=C(CS(=O)(=O)c1ccccc1)[P+](c1ccccc1)(c1ccccc1)c1ccccc1 | 33.9 µM (inactive) | 27.3 µM (inactive) | 14.7 µM (inactive) | 22.9 µM (inactive) | > 100 µM (inactive) | 12.1 µM (inactive) | 20.2 µM (inactive) | 13.6 µM (inactive) | 12.7 µM (inactive) | > 10 µM (inactive) | 2.72 µM (inactive) | 30.4 µM (inactive) | 12.6 µM (inactive) | 12.3 µM (inactive) | 23.5 µM (inactive) | 8.93 µM (inactive) | 27.5 µM (inactive) | 14.8 µM (inactive) | 20.8 µM (inactive) | 18.2 µM (inactive)
9 | CC1(C)CN=C(Nc2ccc(F)cc2)S1 | > 100 µM (inactive) | > 100 µM (inactive) | > 100 µM (inactive) | > 100 µM (inactive) | > 100 µM (inactive) | > 100 µM (inactive) | > 100 µM (inactive) | > 100 µM (inactive) | > 100 µM (inactive) | > 100 µM (inactive) | > 100 µM (inactive) | > 100 µM (inactive) | > 100 µM (inactive) | > 100 µM (inactive) | > 100 µM (inactive) | > 100 µM (inactive) | > 100 µM (inactive) | > 100 µM (inactive) | > 100 µM (inactive) | > 100 µM (inactive)
10 | Cc1cc(=O)n2nc(CCl)sc2n1 | 15 µM (inactive) | 15.5 µM (inactive) | 12.1 µM (inactive) | 14.4 µM (inactive) | 10.5 µM (inactive) | 12.8 µM (inactive) | 19.3 µM (inactive) | 10.6 µM (inactive) | 12.4 µM (inactive) | 5.13 µM (inactive) | 15.8 µM (inactive) | 17.4 µM (inactive) | 10.8 µM (inactive) | 14.3 µM (inactive) | 18.7 µM (inactive) | 10.2 µM (inactive) | 14.3 µM (inactive) | 16.7 µM (inactive) | 16 µM (inactive) | 14.8 µM (inactive)
11 | O=C(NCCOC(=O)OCCNC(=O)NC1CCCCC1)NC1CCCCC1 | > 100 µM (inactive) | 92.5 µM (inactive) | > 100 µM (inactive) | > 100 µM (inactive) | > 100 µM (inactive) | > 100 µM (inactive) | > 100 µM (inactive) | > 100 µM (inactive) | > 100 µM (inactive) | > 100 µM (inactive) | > 100 µM (inactive) | > 100 µM (inactive) | 0.26 µM (active) | > 100 µM (inactive) | 44.3 µM (inactive) | > 100 µM (inactive) | 71.3 µM (inactive) | > 100 µM (inactive) | > 100 µM (inactive) | > 100 µM (inactive)
12 | CN(C1=NCCO1)c1cccc2ccccc12 | > 10 µM (inactive) | > 10 µM (inactive) | > 10 µM (inactive) | > 10 µM (inactive) | > 10 µM (inactive) | > 10 µM (inactive) | > 10 µM (inactive) | > 10 µM (inactive) | > 10 µM (inactive) | > 10 µM (inactive) | > 10 µM (inactive) | > 10 µM (inactive) | 9.29 µM (inactive) | > 10 µM (inactive) | > 10 µM (inactive) | – | > 10 µM (inactive) | > 10 µM (inactive) | > 10 µM (inactive) | > 10 µM (inactive)
13 | COC(=O)C(/C(=N/NC(N)=S)C(=O)Nc1ccccc1[N+](=O)[O-])c1cnc2ccccc2n1 (stereo unspecified) | > 100 µM (inactive) | > 100 µM (inactive) | > 100 µM (inactive) | > 100 µM (inactive) | > 100 µM (inactive) | > 100 µM (inactive) | > 100 µM (inactive) | > 100 µM (inactive) | > 100 µM (inactive) | > 100 µM (inactive) | > 100 µM (inactive) | > 100 µM (inactive) | > 100 µM (inactive) | > 100 µM (inactive) | > 100 µM (inactive) | > 100 µM (inactive) | > 100 µM (inactive) | > 100 µM (inactive) | > 100 µM (inactive) | > 100 µM (inactive)
14 | Cc1cc(=O)nc(S(=O)(=O)NC(=S)Nc2ccc(Cl)cc2)[nH]1 | > 100 µM (inactive) | > 100 µM (inactive) | > 100 µM (inactive) | > 100 µM (inactive) | > 100 µM (inactive) | > 100 µM (inactive) | > 100 µM (inactive) | > 100 µM (inactive) | > 100 µM (inactive) | > 100 µM (inactive) | > 100 µM (inactive) | 39.5 µM (inactive) | 64 µM (inactive) | > 100 µM (inactive) | > 100 µM (inactive) | > 100 µM (inactive) | > 100 µM (inactive) | > 100 µM (inactive) | > 100 µM (inactive) | > 100 µM (inactive)
